In patent US12006509B2, “Macrotumor engineering” (Purdue Research Foundation, priority 2019, dated 2024):
“Also recorded” adds a separate entry of the source.

Columns and labels:
[1] = tested on: macrotumors formed by T4-2 cells; assay: Doxorubicin treatment of macrotumors, tumor size (surface area); format: cell-based; details: 10 μM; 24 h, followed by six-day resting period
Experimental: (§1) FIG. 6. Effect of Doxorubicin treatment on macrotumors formed by T4-2 cells. a. Images of macrotumors treated (Dox) or untreated (Control) with 10 μM doxorubicin at day 0, for 24 hours and further cultured for six days. n=two replicates for this experiment (1, 2). b. Shown are the surface areas of macrotumors from A measured at days 0, 1, 2, 4, 5, and 7. c. Another experiment with 24 h Doxorubicin (Dox) treatment at day 0, 7 and 14 with images taken at day 0 and 21. Size bars, 5 mm
Images of whole tumors in culture and of paper scaffold were taken with a Plugable USB 2.0 Digital Microscope (Plugable Technologies, Redmond, WA). Tumor size (short and long axis) was measured with ImageJ. For pathological assessment slides were either directly visualized by microscopy or scanned (20× objective) with an Aperio/Pathology Slide Scanner (Leica Biosystems Inc., Buffalo Grove, IL).

[2] = tested on: macrotumors formed by T4-2 cells; assay: Weekly doxorubicin treatment of macrotumors, pathological assessment of nuclear morphology; format: cell-based; details: 10 μM; 24 h weekly for three weeks; assessed at days 7 and 21
Experimental: as §1
Macrotumors were fixed in 4% paraformaldehyde (Santa Cruz; Dallas, TX) prior to embedding in paraffin at the Histology Research Laboratory, Department of Comparative Pathobiology, Purdue University, according to standard protocols used for tumor sample embedding, sectioning, immunohistochemistry with polyclonal antibodies against caspase 3 (1/200; Cell Signaling Tech, Danvers, MA) and Ki67 (1/500; Millipore-Sigma, St Louis, MO) and hematoxylin & eosin (H&E) staining. Certain sections were stained with toluidine blue (SigmaAldrich, St. Louis, MO) before H&E staining.

[3] = tested on: macrotumors formed by T4-2 cells; assay: Doxorubicin uptake in macrotumors (autofluorescence, confocal Z-sections); format: cell-based; details: 4-h treatment, 10 μg/ml [17.25 μM], macrotumors cultured 24 h
Experimental: FIG. 1. Differential centrifugation of small tumor nodules leads to the formation of simple and mixed types of macrotumors with in vivo like pathological features. The formation of tumors of up to 600 μm in size was induced by culturing either IDC T4-2 cells or S2 DCIS cells in Matrigel™ drip culture for 10 days. Upon release from Matrigel™ with dispase treatment, tumor nodules were incubated with 100 μg/ml fibronectin solution, spun down either as a single type of nodules (9,000 nodules; a-e) or as mixed types of nodules (4,500 nodules of each tumor type; f-g) and embedded in collagen I (2,000 Pa) as detailed in the methods section. a. […] Macrotumors cultured for 24 h were incubated with 17.25 μM doxorubicin for four hours and imaged with bright field and fluorescence microscopy (doxorubicin autofluorescence in the red channel). […] Fluorescence images of macrotumors formed by DiI-stained T4-2 nodules, CellMask™ Green-stained S2 nodules and mixed types of macrotumors with T4-2 and S2 nodules (either mixed before centrifugation ‘T4-2/S2 by mixing’ or sequentially centrifuged ‘T4-2/S2 by stacking’) taken with a Nikon®ECLIPSE® Ts2 inverted microscope (Nikon, Melville, NY). g. […] In D, 50 nuclei analyzed in two biological replicates for macrotumors and 100 nuclei analyzed per section of three tissue samples; *P<0.05 **P<0.01; ANOVA with Tukey's posthoc test. […]

[4] = Stiffness measurement of collagen I with fibronectin (compression test); format: physicochemical; details: fibronectin with collagen I vs collagen I only
Experimental: FIG. 3. Impact of fibronectin on macrotumors. Small tumors (9000) preformed in Matrigel™ for 10 days were used to make macrotumors as described in the Methods section with or without incubation with 100 μg/ml fibronectin. a. Macrotumors prepared without fibronectin incubation and cultured for 24 hours (right images at 40× magnification). b. Comparison of volumes and areas of macrotumors with (+) or without (−) incubation with fibronectin after 30 minutes (0.5 h) and 24 h of culture; n=5, mean+/−SEM. c. Stiffness of collagen I (Young's modulus, Pa) prepared with Collagen I, and measured with customized eXpert 4000, ADMET by constant pressure on unconstrained sample (see reference 15 for details for this procedure). d. Staining with H&E of macrotumors prepared without incubation with fibronectin. e. representative images of macrotumors and nodules (mixed in collagen I for 10 minutes without prior centrifugation). Shown is the bar graph of the percentage of cells positive for proliferation marker Ki67 staining after 24 h of culture of macrotumors in collagen I or collagen I+fibronectin (F), or nodules (mixed in collagen I for 10 minutes without prior centrifugation); n=2; 150 nuclei analyzed per biological replicate. […]
The elastic modulus of cultured samples can be calculated from engineered stress-strains curve attained with compression tests. […]

Compound	tumor size [1]	nuclear morphology (pathological assessment) [2]	drug uptake / penetration in the macrotumor [3]	ECM stiffness [4]
COc1cccc2c1C(=O)c1c(O)c3c(c(O)c1C2=O)C[C@@](O)(C(=O)CO)C[C@@H]3O[C@H]1C[C@H](N)[C@H](O)[C@H](C)O1 [doxorubicin]	appeared to decrease tumor size after day 4	increasingly affected	penetration of doxorubicin in all areas of the macrotumor; also recorded: drug uptake occurred throughout the macrotumors	
Fibronectin				slightly raised
